Patent publication US9821031B2, “Methods and compositions for treating hypoglycemic disorders” (priority 2007, dated 2017)
Entries after “also recorded” stand apart in the source; their conditions may differ. Marks after values point to notes of the source that are not given here.

Tests used:
[1] = test system: SUR-1−/− mice; assay: Fasting blood glucose during continuous subcutaneous exendin-(9-39) infusion; type: in vivo, mouse; conditions: for Fasting blood glucose levels: 150 pmol/kg/min s.c. pump, overnight fast
Description: (§1) SUR-1^−/− mice were kindly provided by Dr. Mark A. Magnuson. The generation and genotyping of SUR-1^−/− mice were previously described (8). Mice are maintained in a C57B1/6 genetic background. Twelve to eighteen week SUR-1^−/− and wild-type littermate control mice were used in all experiments. Mice were maintained on a 12:12-h light-dark cycle and were fed a standard rodent chow diet. All procedures were approved and carried out according to the University of Pennsylvania Institutional Animal Care and Use Committee Guidelines. Alzet mini-osmotic pumps (model 2002; Alza, Palo Alto, Calif.) were implanted subcutaneously to deliver exendin-(9-39) (Bachem Bioscience, King of Prussia, Pa.) at a rate of 150 pmol/kg/min or vehicle (0.9% NaCl/1% BSA) for 2 weeks. For determination of fasting blood glucose levels mice were fasted for 12-16 hours. Oral glucose tolerance testing was carried after a 12-16 hour fast by administering 2 g/kg of dextrose by oral gavage (feeding needles; Popper and Sons, Inc., Hyde Park, N.Y.). For insulin tolerance testing mice received 0.5 units/kg of insulin intraperitoneally after a 4 hour fast. Blood glucose levels were measured using a hand-held glucose meter (FreeStyle; TheraSense, Alameda, Calif.). Insulin and glucagon were measured by ELISA (Mouse Endocrine Immunoassay Panel; Linco Research, Inc., St. Charles, Mo.). Twelve-18 week old male SUR-1^−/− and wildtype littermates underwent a baseline evaluation including fasting blood glucose measurements and oral glucose tolerance testing, followed by randomization to treatment with exendin-(9-39) (150 pmol/kg/min) or vehicle (0.9% NaCl, 1% BSA). Fasting blood glucose levels were determined after an overnight fast on days 3 and 7 of the infusion. In addition, oral glucose tolerance and insulin sensitivity were evaluated during treatment. […] After an oral load of glucose, SUR-1^−/− mice were glucose intolerant when compared to littermate wild-type controls (p<0.0001, repeated measures ANOVA) (FIG. 1C). The SUR-1^−/− mice have a significant impairment of insulin secretion in response to an oral glucose load (wildtype vs. SUR-1^−/−: p=0.02, repeated measures ANOVA) (FIG. 1D). Exendin-(9-39) was administered via an Azlet miniosmotic subcutaneous pump at a continuous infusion rate of 150 pmol/kg/min for 2 weeks. This dose was chosen based on results of a pilot study evaluating different doses previously shown to have an effect in normal humans and mice.

[2] = test system: wild-type littermates; assay: as above; type: in vivo, mouse; conditions: wild-type mice, 150 pmol/kg/min
Description: as §1

[3] = test system: SUR-1−/− mice; assay: Fasting hormonal profile (insulin, glucagon, insulin/glucose ratio); type: in vivo, mouse
Experimental: (§2) Alzet mini-osmotic pumps (model 2002; Alza, Palo Alto, Calif.) were implanted subcutaneously to deliver exendin-(9-39) (Bachem Bioscience, King of Prussia, Pa.) at a rate of 150 pmol/kg/min or vehicle (0.9% NaCl/1% BSA) for 2 weeks. For determination of fasting blood glucose levels mice were fasted for 12-16 hours. Oral glucose tolerance testing was carried after a 12-16 hour fast by administering 2 g/kg of dextrose by oral gavage (feeding needles; Popper and Sons, Inc., Hyde Park, N.Y.). For insulin tolerance testing mice received 0.5 units/kg of insulin intraperitoneally after a 4 hour fast. Blood glucose levels were measured using a hand-held glucose meter (FreeStyle; TheraSense, Alameda, Calif.). Insulin and glucagon were measured by ELISA (Mouse Endocrine Immunoassay Panel; Linco Research, Inc., St. Charles, Mo.).

[4] = test system: SUR-1−/− and wild-type mice; assay: Insulin tolerance test (insulin sensitivity); type: in vivo, mouse; conditions: insulin 0.5 units/kg i.p. after 4 hour fast, any of the treatment groups (FIG. 4B)
Experimental: as §2, with “Mo.). Twelve-18 week old male SUR-1^−/− and wildtype littermates underwent a baseline evaluation including fasting blood glucose measurements and oral glucose tolerance testing, followed by randomization to treatment with exendin-(9-39) (150 pmol/kg/min) or vehicle (0.9% NaCl, 1% BSA). Fasting blood glucose levels were determined after an overnight fast on days 3 and 7 of the infusion. In addition, oral glucose tolerance and insulin sensitivity were evaluated during treatment. […]” for “Mo.).”

[5] = test system: SUR-1−/− islets; assay: Insulin secretion in static incubations of isolated islets; type: cell-based, mouse
[6] = test system: SUR-1−/− islets; assay: Cytosolic free Ca2+ measurement (Fura-2); type: cell-based, mouse; conditions: for Amino acid-stimulated rise in intracellular calcium: SUR-1−/− islets, amino acids 4 mM (FIG. 6)
Experimental: Mouse islets were isolated and cultured on poly-[…] coated glass coverslips under the same conditions as described above. The perifusion procedure and cytosolic-free Ca2+ ([Ca2+]i) measurement were described previously (24). In brief, the coverslip with attached islets was incubated with 15 μM Fura-2 acetoxymethylester (Molecular Probes, Eugene, Oreg.) in Krebs-Ringer bicarbonate buffer with 5 mM glucose for 35 min at 37° C. Islets were then perifused with Krebs-Ringer bicarbonate buffer with 0.25% bovine serum albumin at 37° C. at a flow rate of 2mL/min, while various agents were applied. [Ca2+]i was measured with a dual wavelength fluorescence microscope as previously described.

[7] = test system: SUR-1−/− islets; assay: Islet perifusion, fuel-induced insulin secretion; type: cell-based, mouse; conditions: perifused SUR-1−/− islets
Experimental: Islets were isolated by collagenase digestion and cultured for 3 days in RPMI 1640 medium containing 10 mM glucose. The culture medium was supplemented with 10% fetal bovine serum, 2 mM glutamine, 100 units/mL penicillin, and 50 μg/mL streptomycin. Islets were incubated at 37° C. in a 5% CO2, 95% air-humidified incubator. Batches of 100 cultured mouse islets were loaded onto a nylon filter in a chamber and perifused with Krebs-Ringer bicarbonate buffer (115 mM NaCl, 24 mM NaHCO3, 5 mM KCl, 1 mM MgCl2, 2.5 mM CaCl2, 10 mM HEPES, pH 7.4) with 0.25% bovine serum albumin at a flow rate of 2 mL/min. Perifusate solutions were gassed with 95% O2, 5% CO2 and maintained at 37° C. Islets were stimulated with a ramp of amino acids. The physiologic mixture of 19 amino acids when used at a maximum concentration of 12 mM (about 3 times physiological concentration) had the following composition (in mM): glutamine 2, alanine 1.25, arginine 0.53, aspartate 0.11, citrulline 0.27, glutamate 0.35, glycine 0.85, histidine 0.22, isoleucine 0.27, leucine 0.46, lysine 1.06, methionine 0.14, ornithine 0.20, phenylalanine 0.23, proline 1, serine 1.62, threonine 0.77, tryptophan 0.21, valine 0.57. Samples were collected every minute for insulin assays. Insulin was measured by radioimmunoassay (Linco Research Inc., St. Charles, Mo.).

[8] = test system: SUR-1−/− islets; assay: cAMP content determination in static incubations of isolated islets; type: cell-based, mouse
Experimental: Islets were isolated as above, hand-picked and cultured for three days. Cultured islets were preincubated in glucose free Krebs-Ringer bicarbonate buffer for 60 min, 100 nM exendin-(9-39) was added 30 min into the preincubation period. Then, islets were exposed to different treatments for an additional 30 min in the presence of 0.1 mM isobutyl-methylzanthine (IBMX). After incubation, islets were washed 2 times by cold glucose-free Hank's buffer. cAMP was measured in islet lysates by ELISA (GE/Amersham Biosciences, Piscataway, N.J.).

[9] = test system: SUR-1−/− mice; assay: Oral glucose tolerance test; type: in vivo, mouse
Experimental: as §1, with “Alzet” for “SUR-1^−/− mice were kindly provided by Dr. Mark A. Magnuson. The generation and genotyping of SUR-1^−/− mice were previously described (8). Mice are maintained in a C57B1/6 genetic background. Twelve to eighteen week SUR-1^−/− and wild-type littermate control mice were used in all experiments. Mice were maintained on a 12:12-h light-dark cycle and were fed a standard rodent chow diet. All procedures were approved and carried out according to the University of Pennsylvania Institutional Animal Care and Use Committee Guidelines. Alzet”

[10] = test system: wild-type littermates; assay: Oral glucose tolerance test; type: in vivo, mouse; conditions: oral glucose 2 g/kg, during treatment (FIG. 4A)
Experimental: as §1, with “Alzet” for “SUR-1^−/− mice were kindly provided by Dr. Mark A. Magnuson. The generation and genotyping of SUR-1^−/− mice were previously described (8). Mice are maintained in a C57B1/6 genetic background. Twelve to eighteen week SUR-1^−/− and wild-type littermate control mice were used in all experiments. Mice were maintained on a 12:12-h light-dark cycle and were fed a standard rodent chow diet. All procedures were approved and carried out according to the University of Pennsylvania Institutional Animal Care and Use Committee Guidelines. Alzet”

[11] = during treatment, SUR-1−/− and wild-type (FIG. 3A)

Substance: Exendin (9-39) [Exendin-(9-39)]
- Fasting blood glucose levels ([1]; day 3, mean±SEM): 82.2 ± 6.3 mg/dL
- Fasting blood glucose levels ([1]; day 7, mean±SEM): 82 ± 4.7 mg/dL
- Effect on fasting blood glucose levels (in words) ([1]; 12-16 hour fast, day 7 (FIG. 2)): normalized
- Fasting blood glucose levels vs. vehicle-treated wild type controls [2]: not different
- Insulin/glucose ratio ([3]; SUR-1−/− mice, WT vs. SUR-1−/− Ex-(9-39) p=0.32 (FIG. 3B)): normalized
- Fasting glucagon levels among treatment groups [3, 11]: not different
- Fasting insulin levels among treatment groups [3, 11]: not different
- Peripheral insulin sensitivity [4]: did not impact; also recorded: did not influence
- Insulin Secretion ([5]; 100 nM exendin-(9-39) + 4 mM AAM (amino acid-stimulated), AAM alone 389 ± 17): 219 ± 14 ng/100 islets/30 min
- Insulin Secretion ([5]; 100 nM exendin-(9-39) + 4 mM AAM (amino acid-stimulated), AAM alone 389 ± 17, listed as exendin-(9-39)): 219±14 ng/100 islets/30 min
- Insulin Secretion ([5]; basal, 100 nM exendin-(9-39), baseline 221 ± 22): 126 ± 12^a ng/100 islets/30 min
- Insulin Secretion ([5]; basal, 100 nM exendin-(9-39), baseline 221 ± 22, listed as exendin-(9-39)): 126±12 ng/100 islets/30 min
- Basal intracellular calcium ([6]; SUR-1−/− islets (FIG. 6)): did not affect
- Amino acid-stimulated rise in intracellular calcium [6]: no effect
- Amino acid-stimulated rise in intracellular calcium ([6]; listed as exendin-(9-39)): did not impact
- Insulin response to KCl, presence vs. absence of exendin-(9-39) ([7]; 100 nM exendin-(9-39)): similar
- Insulin release in response to ramp of amino acid mixture ([7]; amino acids 0-12 mM, 100 nM exendin-(9-39) (FIG. 5)): blocked
- cAMP Content ([8]; 100 nM exendin-(9-39) + 4 mM AAM (amino acid-stimulated)): 52.5 ± 9.4^c pmol/100 islets
- cAMP Content ([8]; 100 nM exendin-(9-39) + 4 mM AAM (amino acid-stimulated), listed as exendin-(9-39)): 20.9±4.4 pmol/100 islets
- cAMP Content ([8]; basal, 100 nM exendin-(9-39), no exogenous GLP-1, glucose free KRBB, baseline 40.1 ± 4.2): 20.5 ± 2.3^a pmol/100 islets
- cAMP Content ([8]; basal, 100 nM exendin-(9-39), no exogenous GLP-1, glucose free KRBB, baseline 40.1 ± 4.2, listed as exendin-(9-39)): 20.5±2.3 pmol/100 islets
- Glucose tolerance ([9]; oral glucose 2 g/kg, during treatment (FIG. 4A)): did not significantly impair; also recorded: did not influence
- Return to baseline blood glucose levels ([9]; oral glucose tolerance test, 120 minute time point): minor delay
- Glucose tolerance [10]: no effect
